# Read-outs that look alike come from different tables or passages of the source.
# Legend:
# Cav3.1 = target: T1, Cav3.1 (Homo sapiens, UniProt O43497); experiment: Whole-cell patch clamp of T-type Cav3.1 channel expressed in HEK293 cells; type: cell-based; conditions: Table 2
# T1 construct: expressed in transfected cells; host or cells: HEK-293, tetracycline inducible expression system (Invitrogen)
# Experimental: (§1) Cav3.1, Cav3.2 or Cav3.3 channels were expressed in human embryonic kidney (HEK)-293 cells using a tetracycline inducible expression system (Invitrogen). Cells were maintained in 25 cm^2 tissue culture flasks at 37° C., 5% CO2, and 100% relative humidity in D-MEM/F12 (Dulbecco's Modified Eagle Medium/Nutrient Mixture F-12; Gibco) supplemented with fetal bovine serum (FBS, 10% v/v), sodium pyruvate (0.5 mM, Gibco), penicillin-streptomycin (100 U/mL, 100 μg/mL) and Geneticin® Selective antibiotic (G418; 0.5 mg/mL). Cells were detached from the flask base using a non-enzymatic cell dissociation solution (Cellstripper, Corning), removed and re-seeded on to poly-D-lysine coated glass coverslips in 35 mm dishes.
# (§2) Whole-cell voltage clamp recordings were performed on rat or mouse DRG neurons within 2 days after acutely dissociation or cultured HEK293 cells expressing T-type channels (encoded by Cav3.1, Cav3.2 or Cav3.3 channels). All experiments were performed at room temperature (around 21° C.). Whole-cell currents were recorded using a MultiClamp 700B amplifier and analyzed offline with pCLAMP10.4 software (Molecular Devices, LLC, Sunnyvale Calif., USA). […] Since the sodium ions were absent in the external solution, tetrodoctoxin was not needed. Calcium currents were recorded at a holding potential of −100 mV and then depolarized to −30 mV for 100 ms to activate either Cav3.1, Cav3.2, or Cav3.3 expressed in HEK cells. An interpulse interval of 10 seconds allowed the channel recovery from inactivation, and achieved stable current recordings. To record sodium (Na^+) currents in DRG neurons, the external solution used the modified Krebs solution specified above. The internal solution was composed (in mM) of 120 CsF, 10 HEPES, 11 EGTA, 1 CaCl2, 1 MgCl2, 10 TEA-Cl, 4 MgATP and 0.3 MgGTP (pH 7.3-7.4 adjusted with CsOH). […] To record potassium currents in DRG neurons, the external solution used the modified Kreb's solution specified above. The internal solution was composed (in mM) of 65 KCl, 80 KF, 5 KOH, 10 EGTA, 2 MgATP (pH 7.3-7.4 adjusted with KOH). Recording electrodes were fabricated using a P-87 puller (Sutter Instrument Co., Novato, Calif., USA). The tip of resistance was 3-4 MQ in bath and the series resistance was less than 10 MΩ after whole cell configuration. All reagents were purchased from Sigma unless specified otherwise. Test compounds were usually applied via a rapid solution exchange system with 8 fine polyplastic tubings (100 μm, OD) glued in a holder in parallel and located closely to the recorded cells. The current responses were normalized to the control, percent inhibition was calculated and sigmoidal dose-response curves were generated using XLFit (IDBS, Surrey, UK) or Prism (GraphPad Software, La Jolla, Calif., US) to calculate IC50 values and Hill slopes using the following equation Y=Bottom+(Top−Bottom)/(1+10^((Log EC50−X)[…])).
# Cav3.3 = target: T2, Cav3.3 (Homo sapiens, UniProt Q9P0X4); experiment: Whole-cell patch clamp of T-type Cav3.3 channel expressed in HEK293 cells; type: cell-based; conditions: Table 2
# T2 construct: expressed in transfected cells; host or cells: HEK-293, tetracycline inducible expression system (Invitrogen)
# Experimental: as §1, §2
# hERG channel = target: T3, hERG channel (Homo sapiens, UniProt Q12809); experiment: hERG patch clamp in hERG-expressing CHO cells; type: cell-based
# T3 construct: expressed in transfected cells; host or cells: CHO
# Experimental: Sodium and potassium channels in the rodent DRG neurons were recorded and tested as described above. The human ether-a-go-go-related gene (hERG) encodes the rapidly activating potassium channel (IKr) contributing to the repolarization of the cardiac action potential. […] Therefore the representative example compounds in Table 2 were tested against the hERG channel.
# Whole-cell patch clamp electrophysiology is employed to test compounds and a positive control compound. Extracellular Ringer's solution contains (in mM): NaCl (130), KCl (5), CaCl2 (1), Glucose (10), HEPES-Na (10) (pH 7.4 adjusted with HCl). Internal pipette solution contains (in mM): KF (120), CaCl2 (1), MgCl2 (1), KCl (10), EGTA (11), HEPES (10), KOH (11) (pH 7.2 adjusted with KOH). The hERG potassium currents are recorded under a holding potential of −80 mV and then depolarized to 40 mV for 2.5 seconds to activate the hERG channel. The peak tail currents are induced by a repolarizing pulse to −50 mV for 4 seconds. A 250 millisecond prepulse to −50 mV is applied for leak subtraction. This voltage-clamp pulse protocol is performed continuously during the experiment every 20 seconds allowing recovery from inactivation. For IC50 determination, each concentration is applied for 2 mins to reach a steady-state inhibitory level prior to the next higher concentrations tested. Each concentration is tested at 2-3 times (n=2-3).
# [1] = tested on: PTZ-induced seizures in mice; experiment: Pentylenetetrazol (PTZ)-induced seizures in mice; type: in vivo, mouse; conditions: for latency to seizures / fatality latency / fatality rate: 30 mg/kg I.P., PTZ 40 mg/kg I.P.; for fatality latency / fatality rate: 20 min cutoff
# Experimental: FIG. 10. […] Sixty minutes (min) prior to receiving PTZ (40 mg/kg, I.P.), each mouse was pretreated with either an Example compound, ML218, Z944 or vehicle (2% DMSO in 0.5% HPC). Fatality rate (%) of mice in each group that dies within the 20 minutes observation period—was calculated. Both fatality rate and latency (data not shown) to death were used to evaluate the Example compound's ability to prevent death resulting from PTZ-induced seizures. A cutoff of 20 minutes was set for observational and statistical analysis purposes.
# It is well known that antiepileptics, e.g. carbamazepine, lamotrigine and gabapentin are used for the treatment of neuropathic pain (Xie et al., 1995, Caviedes and Herranz, 2001). T-channel overactivation is involved in the generation of seizure activity (Huguenard, 1998, Cribbs et al., 2000, Perez-Reyes et al., 2009, Perez-Reyes, 2010). […] Fatality latency and rate—the percentage (%) of mice in each treatment group that died within a 20 minute cutoff of the observational period, were recorded and calculated. Averaged fatality latency and rate of each treatment group was used to evaluate the Example compound's ability to either prevent or delay the onset of PTZ-induced seizures and death.
# T3 sequence (Q12809 whole entry): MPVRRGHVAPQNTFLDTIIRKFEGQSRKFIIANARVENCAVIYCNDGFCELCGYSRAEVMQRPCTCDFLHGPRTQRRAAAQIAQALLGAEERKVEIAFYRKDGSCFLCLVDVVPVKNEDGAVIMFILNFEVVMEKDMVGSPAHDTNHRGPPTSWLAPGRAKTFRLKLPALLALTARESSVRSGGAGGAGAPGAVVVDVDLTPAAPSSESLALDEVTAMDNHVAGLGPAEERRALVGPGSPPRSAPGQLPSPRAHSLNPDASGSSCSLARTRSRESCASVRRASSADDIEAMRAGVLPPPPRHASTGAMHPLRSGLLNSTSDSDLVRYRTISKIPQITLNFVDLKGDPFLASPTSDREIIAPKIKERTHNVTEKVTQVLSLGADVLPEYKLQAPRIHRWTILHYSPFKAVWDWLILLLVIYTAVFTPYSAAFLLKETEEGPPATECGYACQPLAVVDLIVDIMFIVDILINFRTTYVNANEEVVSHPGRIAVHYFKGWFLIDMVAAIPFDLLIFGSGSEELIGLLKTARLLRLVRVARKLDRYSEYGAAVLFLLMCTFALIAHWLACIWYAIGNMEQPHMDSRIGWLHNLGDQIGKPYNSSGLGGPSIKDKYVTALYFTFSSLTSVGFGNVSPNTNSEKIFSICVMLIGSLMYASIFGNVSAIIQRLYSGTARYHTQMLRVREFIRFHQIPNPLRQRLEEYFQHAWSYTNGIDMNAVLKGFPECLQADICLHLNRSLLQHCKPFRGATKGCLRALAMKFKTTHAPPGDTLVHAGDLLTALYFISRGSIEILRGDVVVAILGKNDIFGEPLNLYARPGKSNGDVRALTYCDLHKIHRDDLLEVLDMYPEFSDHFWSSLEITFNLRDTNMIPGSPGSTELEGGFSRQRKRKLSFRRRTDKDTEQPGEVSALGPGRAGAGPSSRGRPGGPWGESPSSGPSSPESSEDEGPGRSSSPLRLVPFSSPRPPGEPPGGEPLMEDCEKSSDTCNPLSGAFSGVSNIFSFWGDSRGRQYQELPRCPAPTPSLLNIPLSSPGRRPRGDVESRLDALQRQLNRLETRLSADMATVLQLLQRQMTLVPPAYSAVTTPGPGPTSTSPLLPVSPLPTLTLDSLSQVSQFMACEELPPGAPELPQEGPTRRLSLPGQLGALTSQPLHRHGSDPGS
# T2 sequence (Q9P0X4 whole entry, species assumed): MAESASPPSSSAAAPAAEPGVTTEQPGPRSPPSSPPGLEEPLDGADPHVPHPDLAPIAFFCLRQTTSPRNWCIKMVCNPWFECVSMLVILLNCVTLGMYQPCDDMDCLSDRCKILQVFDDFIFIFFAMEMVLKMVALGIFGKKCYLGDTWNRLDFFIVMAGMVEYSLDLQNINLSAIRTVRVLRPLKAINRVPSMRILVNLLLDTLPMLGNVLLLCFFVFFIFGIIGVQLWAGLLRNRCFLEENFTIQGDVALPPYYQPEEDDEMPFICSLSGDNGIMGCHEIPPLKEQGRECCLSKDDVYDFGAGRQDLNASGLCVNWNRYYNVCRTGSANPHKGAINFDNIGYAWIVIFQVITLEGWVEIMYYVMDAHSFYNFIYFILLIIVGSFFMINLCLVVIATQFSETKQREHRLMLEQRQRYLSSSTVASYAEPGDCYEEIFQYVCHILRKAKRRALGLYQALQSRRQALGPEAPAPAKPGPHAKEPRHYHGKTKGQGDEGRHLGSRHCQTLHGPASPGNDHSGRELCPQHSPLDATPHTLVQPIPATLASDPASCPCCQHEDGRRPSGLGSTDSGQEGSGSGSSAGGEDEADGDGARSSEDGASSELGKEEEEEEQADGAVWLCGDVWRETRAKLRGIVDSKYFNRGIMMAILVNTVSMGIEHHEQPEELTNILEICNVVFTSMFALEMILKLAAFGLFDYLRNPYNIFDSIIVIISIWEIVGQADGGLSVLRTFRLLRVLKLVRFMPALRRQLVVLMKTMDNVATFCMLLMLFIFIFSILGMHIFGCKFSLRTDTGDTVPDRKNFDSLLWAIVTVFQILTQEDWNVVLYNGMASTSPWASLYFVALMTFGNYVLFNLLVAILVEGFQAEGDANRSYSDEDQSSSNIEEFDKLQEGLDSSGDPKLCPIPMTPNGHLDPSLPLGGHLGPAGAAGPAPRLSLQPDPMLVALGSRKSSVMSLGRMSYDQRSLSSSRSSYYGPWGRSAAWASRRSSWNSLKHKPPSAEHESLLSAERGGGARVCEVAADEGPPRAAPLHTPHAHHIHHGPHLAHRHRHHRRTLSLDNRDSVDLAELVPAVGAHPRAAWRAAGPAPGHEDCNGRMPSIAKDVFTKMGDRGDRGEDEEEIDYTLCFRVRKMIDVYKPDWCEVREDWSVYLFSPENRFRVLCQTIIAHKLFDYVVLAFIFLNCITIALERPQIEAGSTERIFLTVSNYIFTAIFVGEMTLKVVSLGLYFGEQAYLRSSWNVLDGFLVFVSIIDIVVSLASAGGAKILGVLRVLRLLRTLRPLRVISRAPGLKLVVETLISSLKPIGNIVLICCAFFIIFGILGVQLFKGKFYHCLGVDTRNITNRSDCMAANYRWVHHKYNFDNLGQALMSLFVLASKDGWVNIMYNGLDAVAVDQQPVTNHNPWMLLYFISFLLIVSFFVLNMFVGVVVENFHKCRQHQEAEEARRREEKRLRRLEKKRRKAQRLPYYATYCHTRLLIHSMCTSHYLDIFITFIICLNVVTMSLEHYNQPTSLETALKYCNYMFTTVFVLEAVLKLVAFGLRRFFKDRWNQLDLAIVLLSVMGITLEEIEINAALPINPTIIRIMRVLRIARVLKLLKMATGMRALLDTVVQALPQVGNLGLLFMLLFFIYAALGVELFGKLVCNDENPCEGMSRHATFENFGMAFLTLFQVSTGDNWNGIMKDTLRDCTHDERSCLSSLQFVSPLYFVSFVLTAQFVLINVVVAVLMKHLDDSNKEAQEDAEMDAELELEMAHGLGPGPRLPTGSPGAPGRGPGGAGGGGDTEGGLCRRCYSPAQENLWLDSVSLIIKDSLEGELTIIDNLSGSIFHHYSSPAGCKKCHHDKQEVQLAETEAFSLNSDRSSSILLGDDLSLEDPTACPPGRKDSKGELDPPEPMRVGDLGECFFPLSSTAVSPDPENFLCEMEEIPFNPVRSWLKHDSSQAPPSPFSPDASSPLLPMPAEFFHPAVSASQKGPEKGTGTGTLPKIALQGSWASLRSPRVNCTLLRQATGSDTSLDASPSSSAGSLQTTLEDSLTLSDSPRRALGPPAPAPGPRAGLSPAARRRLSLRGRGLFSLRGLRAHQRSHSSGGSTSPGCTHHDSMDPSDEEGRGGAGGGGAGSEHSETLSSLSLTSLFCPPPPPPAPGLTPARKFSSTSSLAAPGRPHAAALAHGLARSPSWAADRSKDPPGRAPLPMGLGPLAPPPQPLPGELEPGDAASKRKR
Compound,IC50 (Cav3.1) [nM],IC50 (Cav3.3) [nM],"IC50 (hERG channel; Table 2, read-out: hERG IC50) [nM]",latency to seizures [1],fatality latency [1],fatality rate [1],IC50 (hERG channel) [nM],"PTZ-induced Fatality (%) ([1]; 30 mg/kg I.P. 60 min before PTZ 40 mg/kg I.P., death within 20 min)"
"CC(C)(C)NC(=O)CN1CCC2(CC1)C[C@H]2NC(=O)c1cc(F)cc(C(F)(F)F)c1 (single isomer, unassigned) [Example 130, (R)—N-(6-(2-(tert-Butylamino)-2-oxoethyl)-6-azaspiro[2.5]octan-1-yl)-3-fluoro-5-(trifluoromethyl)benzamide or (S)—N-(6-(2-(tert-Butylamino)-2-oxoethyl)-6-azaspiro[2.5]octan-1-yl)-3-fluoro-5-(trifluoromethyl)benzamide]",110,280,8000,significantly prolonged latencies to seizures,prolonged fatality latencies,decreased the fatality rate,,
"CC(C)(C)CCN1CCC2(CC1)CC2NC(=O)c1cc(F)cc(Cl)c1 (stereo not shown) [Example 28, 3-Chloro-N-(6-(3,3-dimethylbutyl)-6-azaspiro[2.5]octan-1-yl)-5-fluorobenzamide]",280,210,,significantly prolonged latencies to seizures,prolonged fatality latencies,decreased the fatality rate,3600,
"CC(C)(C)NC(=O)CN1CCC2(CC1)C[C@H]2NC(=O)c1cc(C(F)(F)F)cc(C(F)(F)F)c1 (single isomer, unassigned) [Example 144, ((R)—N-(6-(2-(tert-butylamino)-2-oxoethyl)-6-azaspiro[2.5]octan-1-yl)-3,5-bis(trifluoromethyl)benzamide or (S)—N-(6-(2-(tert-butylamino)-2-oxoethyl)-6-azaspiro[2.5]octan-1-yl)-3,5-bis(trifluoromethyl)benzamide]",40,250,4600,significantly prolonged latencies to seizures,prolonged fatality latencies,decreased the fatality rate,,
"CC(C)(C)NC(=O)CN1CCC2(CC1)C[C@H]2NC(=O)c1cc(F)cc(Cl)c1 (single isomer, unassigned) [Example 129, (R)—N-(6-(2-(tert-Butylamino)-2-oxoethyl)-6-azaspiro[2.5]octan-1-yl)-3-chloro-5-fluorobenzamide or (S)—N-(6-(2-(tert-Butylamino)-2-oxoethyl)-6-azaspiro[2.5]octan-1-yl)-3-chloro-5-fluorobenzamide]",1040,1630,16000,significantly prolonged latencies to seizures,prolonged fatality latencies,decreased the fatality rate,,
"CC(C)(C)NC(=O)CN1CCC(CNC(=O)c2cc(F)cc(Cl)c2)CC1 [Z944, reference compound]",110,570,9500,significantly prolonged latencies to seizures,prolonged fatality latencies,decreased the fatality rate,,33.3

# Source: patent US10562857B2 (AFASCI, Inc., priority 2015, dated 2020)
